How the values were obtained:
[1] = Photobleaching experiment, 785 nm laser radiation; assay type: physicochemical; conditions: aqueous medium, 37° C., 3 sec irradiation/1 sec dark repeated for 1 h
Experimental: A further advantage of the present invention is the improved photostability of the dye with respect to the free dye in water solution. An experiment was performed in aqueous medium by the exposition of free ICG solution and the ICG loaded SLNs suspension to a 785 nm laser radiation (see FIG. 2, Example 8). The fluorescence emissions were collected by NIR fluorescent imaging system (Pearl® Impulse system by LI-COR Biosciences). […] Then, the experiment was carried out in duplicate at 37° C. irradiating both samples for 3 sec and keeping the samples in the dark for 1 sec. This sequence was repeated in continuous for 1 h.
The photobleaching experiment was performed by the exposition of free ICG aqueous solution and the ICG loaded SLNs suspension to a 785 nm laser radiation The fluorescence emissions were collected by NIR fluorescent imaging system (Pearl Impulse system by LI-COR Biosciences).
Then, the experiment was carried out in duplicate at 37° C. irradiating both samples for 3 sec and keeping the samples in the dark for 1 sec. This sequence was repeated in continuous for 1 h.

[2] = UV-Vis spectra for J-aggregates evaluation; assay type: physicochemical; conditions: SLNs suspension up to 120 days, free ICG in aqueous solution up to 15 days
Experimental: In FIG. 4 (panel A, Example 7) there are reported the UV-Vis spectra of ICG-loaded SLNs suspension just after the formulation date and 90 and 120 days later. […] The absorbance at 800 nm is recovered at 96% with respect to the initial value. In addition, the fluorescence emission properties can be preserved by the incorporation of ICG in the SLNs over the observed period of time (data not shown).
UV-Vis spectra of ICG-loaded SLNs suspension, prepared as described in the example 4, were recorded after the end of the formulation date, 90 and 120 days later keeping the suspension at store condition. After 120 days the absorbance was recovered at 96% with respect to the initial value (FIG. 4 A).
A solution of ICG (0.14 mg/mL) was prepared in glucosate (5.5%) solution. The sample was diluted before the Uv-Vis analysis and the absorption behaviour was evaluated from 300 to 950 nm until 15 days (FIG. 4 B).

[3] = human recommended dose of 0.5 mg/kg, intravenous; cited from earlier work
[4] = Optical properties (absorption and emission maxima, Stokes' shift); assay type: physicochemical; conditions: SLNs formulation (example 4) or H2O
Source text: Additional optical features (i.e. maximum absorption and emission wavelengths, Stokes' shifts) of ICG in aqueous medium and after incorporation in the SLNs are reported in Table E.

[5] = tendency to aggregate; cited from earlier work

For CC1(C)C(/C=C/C=C/C=C/C=C2/N(CCCCS(=O)(=O)[O-])c3ccc4ccccc4c3C2(C)C)=[N+](CCCCS(=O)(=O)[O-])c2ccc3ccccc3c21.[Na+] [ICG, Indocyanine Green], the “fluorescence emission remaining, of the initial emission fluorescence efficiency” value [1] is given as “slightly above zero”, the “aggregates (J-aggregates) formation” value [2] is given as “can aggregate in few days” and the blood half-time [3] is given as “around 3.0 minutes”. For the same molecule, the “A max wavelength (nm)” value [4] was 780 nm, the “Fluor. Emission λmax (nm)” value [4] was 809 nm and the “Stokes' shift” value [4] was 29. The “time within which aqueous solution must be used” value [5] was no more than 6 h.
